Experimental data as given in ChEMBL document CHEMBL5038589, “Design, Synthesis, and Structure-Activity Relationship of N-Aryl-N'-(thiophen-2-yl)thiourea Derivatives as Novel and Specific Human TLR1/2 Agonists for Potential Cancer Immunotherapy” (J Med Chem, 2021).
Activity calls are given as the source filed them. The rule behind the calls is not given here.

Target: T1, Toll-like receptor 2 (Homo sapiens, UniProt O60603)
Assay: Agonist activity at TLR2 in HEK-Blue cells upto 200 uM incubated for 24 hrs by Quanti-Blue based SEAP assay
Type: cell-based
Details: HEK-Blue hTLR2, dose microM <=200, time 24.0 hrs

T1 sequence (O60603 whole entry): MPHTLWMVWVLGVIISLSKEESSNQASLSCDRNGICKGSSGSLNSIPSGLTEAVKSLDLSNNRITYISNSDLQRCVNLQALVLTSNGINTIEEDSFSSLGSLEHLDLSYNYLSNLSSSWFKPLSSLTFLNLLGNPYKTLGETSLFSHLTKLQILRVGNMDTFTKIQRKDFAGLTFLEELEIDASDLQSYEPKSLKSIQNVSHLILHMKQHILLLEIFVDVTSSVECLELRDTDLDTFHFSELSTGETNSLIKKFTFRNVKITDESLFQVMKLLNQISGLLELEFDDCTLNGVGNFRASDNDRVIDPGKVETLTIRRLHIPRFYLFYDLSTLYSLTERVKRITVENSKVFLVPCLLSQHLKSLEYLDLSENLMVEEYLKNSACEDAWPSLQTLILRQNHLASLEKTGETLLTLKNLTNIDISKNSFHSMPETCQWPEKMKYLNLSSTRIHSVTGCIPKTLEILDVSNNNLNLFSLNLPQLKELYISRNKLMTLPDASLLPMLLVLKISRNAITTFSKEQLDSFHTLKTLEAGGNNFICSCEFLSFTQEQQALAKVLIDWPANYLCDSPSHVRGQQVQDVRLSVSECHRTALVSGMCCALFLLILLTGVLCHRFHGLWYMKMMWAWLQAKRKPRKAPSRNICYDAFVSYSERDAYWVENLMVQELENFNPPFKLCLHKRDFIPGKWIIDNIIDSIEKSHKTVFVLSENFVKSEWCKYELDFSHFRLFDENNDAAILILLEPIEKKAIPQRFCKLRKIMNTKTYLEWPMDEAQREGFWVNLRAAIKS

SMILES	Activity
CCOC(=O)c1c(NC(=O)Nc2ccc(Cl)cc2)sc2c1CCCC2	inactive
CCOC(=O)c1c(NC(=O)Nc2ccc(Cl)c(Cl)c2)sc2c1CCCC2	inactive
COC(=O)c1c(NC(=S)NCCc2ccccc2)sc2c1CCCC2	inactive
CC(C)OC(=O)c1c(-c2ccccc2)csc1NC(=S)Nc1cccc2ccccc12	inactive
CCOC(=O)c1c(NC(=O)Nc2ccc(Cl)c(Cl)c2)sc2c1CCC2	inactive
COC(=O)c1c(NC(=O)Nc2ccc(Cl)cc2)sc2c1CCC2	inactive
CCOC(=O)c1ccsc1NC(=S)Nc1cccc2ccccc12	inactive
CCOC(=O)c1c(NC(=O)Nc2ccc(Cl)cc2)sc2c1CCC2	inactive
COC(=O)c1c(NC(=S)NCCCSC)sc2c1CCCC2	inactive
COC(=O)c1c(NC(=O)Nc2ccc(Cl)cc2)sc2c1CCCC2	inactive
CCOC(=O)c1c(NC(=O)Nc2cccc(Cl)c2)sc2c1CCC2	inactive
COC(=O)c1c(NC(=O)Nc2ccc(C)cc2)sc2c1CCC2	inactive
CCOC(=O)c1c(NC(=S)NCCCSC)sc2c1CCCC2	inactive
CCOC(=O)c1c(-c2ccccc2)csc1NC(=S)Nc1cccc2ccccc12	inactive

Results, then the compound that gave them:

Activity	SMILES
inactive	CC(C)(C)OC(=O)c1c(NC(=S)Nc2cccc3ccccc23)sc2c1CCCC2
inactive	CCOC(=O)c1c(NC(=S)Nc2cccc3ccccc23)sc2c1CCN(C)C2
inactive	CC(C)(C)OC(=O)c1c(NC(=S)Nc2cccc3ccccc23)sc2c1CCC2
inactive	O=C(O)c1c(NC(=S)Nc2cccc3ccccc23)sc2c1CCCC2
inactive	O=C(O)c1c(NC(=S)Nc2cccc3ccccc23)sc2c1CCC2
inactive	O=C(OCCc1ccccc1)c1c(NC(=S)Nc2cccc3ccccc23)sc2c1CCC2
inactive	CC(C)OC(=O)c1ccsc1NC(=S)Nc1cccc2ccccc12
inactive	CC(C)OC(=O)c1c(NC(=S)Nc2cccc3ccccc23)sc2c1CCN(C)C2
inactive	CCCCOC(=O)c1c(NC(=S)Nc2cccc3ccccc23)sc2c1CCCC2

Target: T1, Toll-like receptor 2
Assay: Agonist activity at TLR2 in HEK-Blue cells incubated for 24 hrs by Quanti-Blue based SEAP assay
Type: cell-based, HEK-Blue hTLR2
Details: not given

SMILES	EC50 [µM]
CCOC(=O)c1c(N=C(S)Nc2ccccc2)sc2c1CCCCC2	28.5
COC(=O)c1c(NC(=S)Nc2ccccc2)sc2c1CCCC2	14.7
CCOC(=O)c1c(NC(=O)Nc2ccc(C)cc2)sc2c1CCCC2	14.6
CCOC(=O)c1c(NC(=S)Nc2ccc(C(F)(F)F)cc2)sc2c1CCCC2	11.9
CCOC(=O)c1c(NC(=S)Nc2ccc(F)cc2)sc2c1CCCC2	12.1
CCOC(=O)c1c(NC(=O)Nc2ccc(C)cc2)sc2c1CCC2	12.1
CCOC(=O)c1c(NC(=S)Nc2ccc(C)cc2)sc2c1CCCC2	8.77
CCOC(=O)c1c(N=C(S)Nc2ccc(F)cc2)sc2c1CCC2	13.3
COC(=O)c1c(NC(=S)Nc2ccc(C(F)(F)F)cc2)sc2c1CCCC2	33.9
CCOC(=O)c1c(NC(=O)Nc2ccccc2)sc2c1CCCCC2	11.7
CCOC(=O)c1c(NC(=O)Nc2ccccc2)sc2c1CCC2	11.9
COC(=O)c1c(NC(=S)Nc2ccc(C)cc2)sc2c1CCCC2	10.3
CCOC(=O)c1c(NC(=S)Nc2ccc(Cl)cc2)sc2c1CCC2	2.5

More lines, now with the values ahead:

EC50 [µM]	SMILES
5.84	CCOC(=O)c1c(NC(=O)Nc2cccc3ccccc23)sc2c1CCCC2
3.57	COC(=O)c1c(NC(=S)Nc2cccc3ccccc23)sc2c1CCC2
30.4	CC(C)COC(=O)c1c(NC(=S)Nc2cccc3ccccc23)sc2c1CCCC2
0.14	CC(C)OC(=O)c1c(NC(=S)Nc2cccc3ccccc23)sc2c1CCCC2
1.73	CCOC(=O)c1c(NC(=S)Nc2cccc3ccccc23)sc2c1CCC(C)C2 (configuration not stated)
7.13	CCOC(=O)c1c(NC(=S)Nc2ccc(-c3ccccc3)cc2)sc2c1CCC2
28.2	CC(C)COC(=O)c1c(NC(=S)Nc2cccc3ccccc23)sc2c1CCC2
0.82	CCCOC(=O)c1c(NC(=S)Nc2cccc3ccccc23)sc2c1CCC2
0.039	CC(C)OC(=O)c1c(NC(=S)Nc2ccc(Br)c3ccccc23)sc2c1CCC2
5.9	CCOC(=O)c1c(NC(=S)Nc2ccccc2)sc2c1CCC2
2.35	CCOC(=O)c1c(NC(=S)Nc2cccc3ccccc23)sc2c1CCCCC2
7.33	COC(=O)c1c(NC(=S)Nc2cccc3ccccc23)sc2c1CCCC2
0.035	CC(C)OC(=O)c1c(NC(=S)Nc2ccc(F)c3ccccc23)sc2c1CCCC2
7.6	CCOC(=O)c1c(NC(=O)Nc2cccc3ccccc23)sc2c1CCC2
14.1	COC(=O)c1c(NC(=S)Nc2ccccc2)sc2c1CCC2

Target: T1, Toll-like receptor 2
Assay: Binding affinity to recombinant human TLR2 expressed in H5 cells by surface plasmon resonance method
Details: not given

Kd [µM]	SMILES
9	CCOC(=O)c1c(NC(=O)Nc2ccccc2)sc2c1CCCCC2
